Assay results as given in ChEMBL document CHEMBL5257097, “An Isomer of Galidesivir That Potently Inhibits Influenza Viruses and Members of the Bunyavirales Order” (ACS Med Chem Lett, 2023).

Tests used:
[1] = test system: Huh-7; test: Cytotoxicity against human Huh-7 cells infected with DENV-2 assessed as reduction in cell viability by neutral red dye based assay; type: functional
[2] = (§1) Selectivity index, ratio of CC50 for cytotoxicity against human Huh-7 cells infected with DENV-2 assessed as reduction in cell viability by visual analysis to EC50 for antiviral activity against DENV-2 infected in human Huh-7 cells assessed as reduction in virus-induced cytopathic effect by visual analysis; type: toxicity, cell-based; conditions: read-out: Ratio CC50/EC50
[3] = as §1, with “neutral red” for “visual”; type: toxicity, cell-based; conditions: read-out: Ratio CC50/EC50
[4] = Selectivity index, ratio of CC50 for cytotoxicity against human Huh-7 cells infected with Yellow fever virus assessed as reduction in cell viability by neutral red dye based assay to EC50 for antiviral activity against Yellow fever virus infected in human Huh-7 cells assessed as reduction in virus-induced cytopathic effect by neutral red based analysis; type: toxicity; conditions: read-out: Ratio CC50/EC50
[5] = test system: Influenza A virus; test: Antiviral activity against Influenza A virus H1N1 infected in dog MDCK cells assessed as reduction in virus-induced cytopathic effect measured after 15 to 30 mins by visual analysis; type: functional, organism-based
[6] = test system: Zika virus; test: Antiviral activity against Zika virus infected in African green monkey Vero 76 cells assessed as reduction in virus-induced cytopathic effect measured after 15 to 30 mins by neutral red based spectrophotometric analysis; type: functional, organism-based
[7] = Cytotoxicity against African green monkey Vero 76 cells infected with Rift valley fever virus assessed as reduction in cell viability by neutral red dye based analysis; type: toxicity; conditions: chlorocebus sabaeus
[8] = Cytotoxicity against African green monkey Vero 76 cells infected with Rift valley fever virus assessed as reduction in cell viability by visual analysis; type: toxicity, cell-based; conditions: chlorocebus sabaeus
[9] = Cytotoxicity against African green monkey Vero 76 cells infected with Zika virus assessed as reduction in cell viability by neutral red dye based assay; type: toxicity; conditions: chlorocebus sabaeus
[10] = as §1, with “Yellow fever virus” for “DENV-2”; type: toxicity, cell-based; conditions: read-out: Ratio CC50/EC50
[11] = Cytotoxicity against African green monkey Vero 76 cells infected with MERS-CoV assessed as reduction in cell viability by visual analysis; type: toxicity, cell-based; conditions: chlorocebus sabaeus
[12] = test system: Middle East respiratory syndrome-related coronavirus; test: Antiviral activity against MERS-CoV infected in African green monkey Vero 76 cells assessed as reduction in virus-induced cytopathic effect measured after 15 to 30 mins by neutral red dye based analysis; type: functional, organism-based
[13] = Cytotoxicity against dog MDCK cells infected with Influenza A virus H1N1 assessed as reduction in cell viability by neutral red dye based assay; type: toxicity, Canis lupus familiaris
[14] = Cytotoxicity against African green monkey Vero 76 cells infected with MERS-CoV assessed as reduction in cell viability by neutral red dye based analysis; type: toxicity; conditions: chlorocebus sabaeus
[15] = Cytotoxicity against African green monkey Vero 76 cells infected with Zika virus assessed as reduction in cell viability by visual analysis; type: toxicity, cell-based; conditions: chlorocebus sabaeus
[16] = as §1, with “African green monkey Vero 76” for “human Huh-7”, “Rift valley fever virus” for “DENV-2”; type: toxicity, cell-based; conditions: read-out: Ratio CC50/EC50
[17] = test system: dengue virus type 2; test: Antiviral activity against DENV-2 infected in human Huh-7 cells assessed as reduction in virus-induced cytopathic effect measured after 15 to 30 mins by visual analysis; type: functional, organism-based
[18] = test system: dengue virus type 2; test: Antiviral activity against DENV-2 infected in human Huh-7 cells assessed as reduction in virus-induced cytopathic effect measured after 15 to 30 mins by neutral red based analysis; type: functional, organism-based
[19] = test system: Yellow fever virus; test: Antiviral activity against Yellow fever virus infected in human Huh-7 cells assessed as reduction in virus-induced cytopathic effect measured after 15 to 30 mins by visual analysis; type: functional, organism-based; conditions: Yellow fever virus, Huh-7; read-out: EC50
[20] = Selectivity index, ratio of CC50 for cytotoxicity against African green monkey Vero 76 infected with Zika virus assessed as reduction in cell viability by visual analysis to EC50 for antiviral activity against Zika virus infected in African green monkey Vero 76 cells assessed as reduction in virus-induced cytopathic effect by visual analysis; type: toxicity, cell-based; conditions: Vero 76 cells infected with Zika virus, read-out: Ratio CC50/EC50
[21] = (§2) Selectivity index, ratio of CC50 for cytotoxicity against dog MDCK cells infected with Influenza A virus H1N1 assessed as reduction in cell viability by neutral red dye based analysis to EC50 for antiviral activity against Influenza A virus H1N1 infected in dog MDCK cells assessed as reduction in virus-induced cytopathic effect by neutral red dye based analysis; type: toxicity; conditions: read-out: Ratio CC50/EC50
[22] = test system: Rift Valley fever virus; test: Antiviral activity against Rift valley fever virus infected in African green monkey Vero 76 cells assessed as reduction in virus-induced cytopathic effect measured after 15 to 30 mins by visual analysis; type: functional, organism-based
[23] = Selectivity index, ratio of CC50 for cytotoxicity against African green monkey Vero 76 cells infected with Rift valley fever virus assessed as reduction in cell viability by neutral red dye based analysis to EC50 for antiviral activity against Rift valley fever virus infected in African green monkey Vero 76 cells assessed as reduction in virus-induced cytopathic effect by neutral red dye based analysis; type: toxicity; conditions: read-out: Ratio CC50/EC50
[24] = Selectivity index, ratio of CC50 for cytotoxicity against African green monkey Vero 76 cells infected with Zika virus assessed as reduction in cell viability by neutral red dye based analysis to EC50 for antiviral activity against Zika virus infected in African green monkey Vero 76 cells assessed as reduction in virus-induced cytopathic effect by neutral red based spectrophotometric analysis; type: toxicity; conditions: read-out: Ratio CC50/EC50
[25] = test system: Huh-7; test: Cytotoxicity against human Huh-7 cells infected with Yellow fever virus assessed as reduction in cell viability by visual assay; type: functional
[26] = test system: Middle East respiratory syndrome-related coronavirus; test: Antiviral activity against MERS-CoV infected in African green monkey Vero 76 cells assessed as reduction in virus-induced cytopathic effect measured after 15 to 30 mins by visual analysis; type: functional, organism-based
[27] = as §2, with “visual” for “neutral red dye based”; type: toxicity, cell-based; conditions: read-out: Ratio CC50/EC50
[28] = test system: Rift Valley fever virus; test: Antiviral activity against Rift valley fever virus infected in African green monkey Vero 76 cells assessed as reduction in virus-induced cytopathic effect measured after 15 to 30 mins by neutral red dye based analysis; type: functional, organism-based
[29] = Cytotoxicity against dog MDCK cells infected with Influenza A virus H1N1 assessed as reduction in cell viability by visual analysis; type: toxicity, cell-based, Canis lupus familiaris
[30] = test system: Huh-7; test: Cytotoxicity against human Huh-7 cells infected with Yellow fever virus assessed as reduction in cell viability by neutral red dye based assay; type: functional
[31] = test system: Influenza A virus; test: Antiviral activity against Influenza A virus H1N1 infected in dog MDCK cells assessed as reduction in virus-induced cytopathic effect measured after 15 to 30 mins by neutral red based analysis; type: functional, organism-based
[32] = test system: Huh-7; test: Cytotoxicity against human Huh-7 cells infected with DENV-2 assessed as reduction in cell viability by visual analysis; type: functional
[33] = test system: Yellow fever virus; test: Antiviral activity against Yellow fever virus infected in human Huh-7 cells assessed as reduction in virus-induced cytopathic effect measured after 15 to 30 mins by neutral red based analysis; type: functional, organism-based
[34] = test system: Zika virus; test: Antiviral activity against Zika virus infected in African green monkey Vero 76 cells assessed as reduction in virus-induced cytopathic effect measured after 15 to 30 mins by visual analysis; type: functional, organism-based
[35] = Cytotoxicity against African green monkey Vero cells infected with Tacaribe virus assessed as reduction in cell viability by visual analysis; type: toxicity, cell-based; conditions: chlorocebus sabaeus
[36] = as §2, with “visual” for “neutral red dye based”, “inhibition of viral replication” for “reduction in virus-induced cytopathic effect”; type: toxicity, cell-based; conditions: read-out: Ratio CC50/EC50
[37] = as §2, with “B” for “A”, “virus” for “virus H1N1”, “visual” for “neutral red dye based”, “inhibition of viral replication” for “reduction in virus-induced cytopathic effect”; type: toxicity, cell-based; conditions: read-out: Ratio CC50/EC50
[38] = test system: Pichinde virus; test: Antiviral activity against Pichinde virus infected in African green monkey Vero cells assessed as inhibition of viral replication by neutral red dye based analysis; type: functional, organism-based
[39] = Cytotoxicity against African green monkey Vero E6 cells infected with Lymphocytic choriomeningitis virus assessed as reduction in cell viability; type: toxicity, cell-based, Vero C1008; conditions: chlorocebus sabaeus

## Nc1ncnc2c([C@@H]3N[C@H](CO)[C@@H](O)[C@H]3O)c[nH]c12 [GALIDESIVIR]
[1]
  CC50: > 100 µM
[2]
  selectivity ratio: > 7.7
[3]
  selectivity ratio: > 100
[4]
  selectivity ratio: > 5.6
[5]
  EC50: 3.6 µM
[6]
  EC50: 33 µM
[7]
  CC50: > 100 µM
[8]
  CC50: > 100 µM
[9]
  CC50: > 100 µM
[10]
  selectivity ratio: > 3.6
[11]
  CC50: > 100 µM
[12]
  EC50: > 100 µM
[13]
  CC50: > 100 µM
[14]
  CC50: > 100 µM
[15]
  CC50: > 100 µM
[16]
  selectivity ratio: > 4.3
[17]
  EC50: 13 µM
[18]
  EC50: 16 µM
[19]
  EC50: > 100 µM
[20]
  selectivity ratio: > 8.3
[21]
  selectivity ratio: > 30
[22]
  EC50: 23 µM
[23]
  selectivity ratio: > 3.7
[24]
  selectivity ratio: > 3
[25]
  CC50: > 100 µM
[26]
  EC50: > 100 µM
[27]
  selectivity ratio: > 28
[28]
  EC50: 27 µM
[29]
  CC50: > 100 µM
[30]
  CC50: > 100 µM
[31]
  EC50: 3.3 µM
[32]
  CC50: > 100 µM
[33]
  EC50: 18 µM
[34]
  EC50: 12 µM

## Nc1ncnn2c([C@@H]3N[C@H](CO)[C@@H](O)[C@H]3O)ccc12
[1]
  CC50: 2.9 µM
[2]
  selectivity ratio: 10
[3]
  selectivity ratio: 2.9
[35]
  CC50: 12 µM
[4]
  selectivity ratio: 8.6
[36]
  selectivity ratio: 41
[5]
  EC50: 0.42 µM
[6]
  EC50: 0.38 µM
[7]
  CC50: 8.9 µM
[8]
  CC50: 10 µM
[37]
  selectivity ratio: 38
[9]
  CC50: 4.4 µM
[10]
  selectivity ratio: 8.6
[11]
  CC50: 10 µM
[12]
  EC50: 32 µM
[13]
  CC50: 3 µM
[14]
  CC50: 4.4 µM
[15]
  CC50: 6.1 µM
[16]
  selectivity ratio: > 100
[17]
  EC50: 0.32 µM
[18]
  EC50: 0.38 µM
[19]
  EC50: 0.37 µM
[20]
  selectivity ratio: 19
[21]
  selectivity ratio: 23
[22]
  EC50: < 0.1 µM
[23]
  selectivity ratio: > 89
[24]
  selectivity ratio: 12
[38]
  EC50: 0.3 µM
[39]
  CC50: 12 µM
[25]
  CC50: 3.2 µM
[26]
  EC50: 0.32 µM
[27]
  selectivity ratio: 57
[28]
  EC50: < 0.1 µM
[29]
  CC50: 24 µM
[30]
  CC50: 3.2 µM
[31]
  EC50: 0.28 µM
[32]
  CC50: > 100 µM
[33]
  EC50: 0.5 µM
[34]
  EC50: 0.32 µM
